Our source for the CLint scaled values is ChEMBL document CHEMBL2311407, “Design and synthesis of diazatricyclodecane agonists of the G-protein-coupled receptor 119” (J Med Chem, 2013).

SMILES strings stand for the structures.

The nature of the data set: Apparent intrinsic clearance in human liver microsomes. To be noted: read-out: CLH(app). Format: ADME, Microsome. (Liver microsomes are a subcellular fraction often used to study metabolism.)

Regarding `CC[C@@H](C)OC(=O)N1C2CC3CC1CC(C2)N3c1ncnc(Oc2cccnc2C)c1C`, the CLint scaled is more than 30 mL/min/kg.

`CC[C@H](C)OC(=O)N1C2CC3CC1CC(C2)N3c1ncnc(Oc2cccnc2C)c1C`: the CLint scaled is more than 30 mL/min/kg.

On to `Cc1ncccc1Oc1ncnc(N2C3CC4CC2CC(C3)N4C(=O)OC2(C)CCC2)c1C`, for which the CLint scaled is more than 30 mL/min/kg.
